The values that follow come from PMC4082664 (Alcoholism, clinical and experimental research, 2011).

For series [1], the target named is T1, CYP3A4 (Homo sapiens, UniProt P08684). In words: Spectral binding. Particulars: for Type of spectral binding with CYP3A4: no ethanol; for δAmax (maximum spectral change): 0.5 µM CYP3A4, 25°C, pH 7.4; for Type of spectral binding with CYP3A4 at low concentrations: low concentrations (<0.5 µM), data not shown.
Series [2] has as its target T1, CYP3A4. The note with it: ref Kumar et al., 2010; cited from earlier work.

Structures are written as SMILES. Like-named read-outs stand apart in the source and are kept apart here.

T1 sequence (P08684 whole entry): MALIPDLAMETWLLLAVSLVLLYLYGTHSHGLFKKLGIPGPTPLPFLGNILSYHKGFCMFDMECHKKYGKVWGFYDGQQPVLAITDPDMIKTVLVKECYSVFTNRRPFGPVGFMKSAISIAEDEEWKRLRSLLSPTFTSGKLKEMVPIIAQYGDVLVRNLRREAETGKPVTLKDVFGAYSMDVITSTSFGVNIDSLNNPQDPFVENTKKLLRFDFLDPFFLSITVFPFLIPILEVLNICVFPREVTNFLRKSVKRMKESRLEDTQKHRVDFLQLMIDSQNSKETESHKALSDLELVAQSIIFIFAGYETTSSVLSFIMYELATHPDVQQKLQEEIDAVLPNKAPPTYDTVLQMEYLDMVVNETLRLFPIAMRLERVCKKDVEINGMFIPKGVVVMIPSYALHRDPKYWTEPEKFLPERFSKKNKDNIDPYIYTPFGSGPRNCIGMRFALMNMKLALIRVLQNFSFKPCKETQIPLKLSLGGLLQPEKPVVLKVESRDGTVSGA

`CC(C)CN(C[C@@H](O)[C@H](Cc1ccccc1)NC(=O)O[C@H]1CCOC1)S(=O)(=O)c1ccc(N)cc1` [Amprenavir]: the “Type of spectral binding with CYP3A4” value in series [1] is on record as “did not show detectable spectral binding”.

On to `CCC[C@@]1(CCc2ccccc2)CC(O)=C([C@H](CC)c2cccc(NS(=O)(=O)c3ccc(C(F)(F)F)cn3)c2)C(=O)O1` [Tipranavir], for which the “δAmax (maximum spectral change)” value in series [1] (20 mM ethanol) is 0.012 ± 0.0003. In series [1] (No ethanol), the “δAmax (maximum spectral change)” value was found to be 0.015 ± 0.0003. In series [1], the “Type of spectral binding with CYP3A4 at low concentrations” value is “weak type II” and the “Type of spectral binding with CYP3A4” value was “type I”.

`CCO` [ethanol]: the “Type of spectral binding with CYP3A4” value in series [2] is given as “type I”.

In the case of `Cc1c(O)cccc1C(=O)N[C@@H](CSc1ccccc1)[C@H](O)CN1C[C@H]2CCCC[C@H]2C[C@H]1C(=O)NC(C)(C)C` [nelfinavir], the “Type of spectral binding with CYP3A4” value in series [2] was “high-affinity type I”.

With `COC(=O)N[C@H](C(=O)N[C@@H](Cc1ccccc1)[C@@H](O)CN(Cc1ccc(-c2ccccn2)cc1)NC(=O)[C@@H](NC(=O)OC)C(C)(C)C)C(C)(C)C` [Atazanavir], in series [1] (20 mM ethanol), the “δAmax (maximum spectral change)” value came out at 0.012 ± 0.0002. For the same compound, in series [1] (No ethanol), the “δAmax (maximum spectral change)” value was 0.013 ± 0.0003. Further, in series [1], the “Type of spectral binding with CYP3A4 at low concentrations” value is “weak type II” and the “Type of spectral binding with CYP3A4” value is “type I”.

As to `CC(C)(C)NC(=O)[C@@H]1C[C@@H]2CCCC[C@@H]2CN1C[C@@H](O)[C@H](Cc1ccccc1)NC(=O)[C@H](CC(N)=O)NC(=O)c1ccc2ccccc2n1` [Saquinavir], the “δAmax (maximum spectral change)” value amounted to 0.006 ± 0.0003 in series [1] (20 mM ethanol) and 0.011 ± 0.0001 in series [1] (No ethanol). For the same compound, the “Type of spectral binding with CYP3A4” value in series [1] was “type I”.
